Data taken from patent US11166942B2 (PRAXIS BIOTECH LLC, priority 2018, dated 2021).
Like-named read-outs stand apart in the source and are kept apart here.

What was measured:
[1] = system: Chinese hamster ovary (CHO) cells; experiment: Protein translation assay (puromycin labelling, CHO cells); type: cell-based; conditions: Cricetulus griseus, CHO, media alone = 100%
Outline: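 CHO cells given compound 2 h at 1 μM (unstressed), or 1 h at 100 nM or 1 μM then co-treated with 300 nM Tg (stressed); 10 μg/ml puromycin pulse 30 min, anti-puromycin western blot with β-actin, densitometry. Normalized to media alone (100%) and, for stressed cells, Tg alone (0%).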

[2] = system: Balb/c mice with immobilized hind limb, gastrocnemius; experiment: Immobilization-induced muscle atrophy; type: in vivo, mouse; conditions: 10 mg/kg oral
Procedure: Wild type eight-weeks-old male Balb/c mice obtained from the vivarium Fundación Ciencia & Vida Chile (Santiago, Chile) were used. Mice were housed in independent plastic cages, fed ad libitum in a room maintained at 25° C. with a 12-h:12-h light:dark cycle.
Twenty-four hours before and during the 3 days of immobilization procedures, animals receive oral administration via feeding tubes (15 gauge) of vehicle (50% Polyethylene glycol 400 (Sigma-Aldrich P3265) in distilled water or 10 mg/kg of test compound formulated in vehicle.
One hindlimb is immobilized with a plastic stick placed over and under the limb and fixed with a medical adhesive bandage. Animals were daily monitored. The immobilization procedure prevents movement of the immobilized leg alone. After 3 days, the animals were sacrificed and gastrocnemius muscle is removed from both hindlimbs, the contralateral, non-immobilized leg being used as an internal control.
For in vivo measurements of protein synthesis, puromycin (Sigma-Aldrich, P8833) is prepared at 0.04 μmol/g body weight in a volume of 200 μl of PBS, and subsequently administered into the animals via intraperitoneal injection, 30 min prior to muscle collection.
Upon collection, muscles were immediately frozen in liquid nitrogen and stored at −80° C. […] Protein concentration in supernatants is determined using BCA Protein Assay Kit (Pierce). […]
Puromycin (12D10) (Merck Millipore), ATF4 (Abcam), Atrogin-1 (ECM Biosciences), MuRF-1 (Santa Cruz Biotechnology) and β-actin (Sigma-Aldrich) antibodies were used as primary antibodies. […] Quantification of protein bands is done by densitometry using ImageJ software.
Expression of ATF4 and the muscle atrophy markers, Atrogin-1 and MuRF-1, of gastrocnemius derived from mobilized and immobilized hind limbs of mice treated with vehicle or compound 58 are shown in FIG. 9C. […] The levels were normalized to β-actin expression and percentage is calculated as the percent relative to the expression of mobile hind limb from control mice (Vehicle) which corresponds to 100%. […]

What does the source list for O=C(NN1CCN(C[C@@H](O)COc2ccc(Cl)c(F)c2)CC1)c1ccc2cc(Cl)ccc2n1 [Compound 58, (R)-6-chloro-N-(4-(3-(4-chloro-3-fluorophenoxy)-2-hydroxypropyl)piperazin-1-yl)quinoline-2-carboxamide]?
activity at 1 µM ([1]; 2 h, unstressed CHO cells, 1 μM, 2 hours, read-out: % Protein synthesis in unstressed cells (1 μM test compound)): 164%; activity at 1 µM ([1]; CHO cells stressed with 300 nM Tg, 1 μM compound, Tg alone = 0%, read-out: % Recovery of protein expression (1 μM test compound)): 118%; ATF4 expression in gastrocnemius ([2]; vs vehicle (FIG. 9D)): reduction; Atrogin-1 expression in gastrocnemius ([2]; vs vehicle (FIG. 9E)): reduction; MuRF-1 expression in gastrocnemius ([2]; vs vehicle (FIG. 9F)): reduction
